Test results: patent US7795208B2, “Methods of using deacetylase inhibitors to promote cell differentiation and regeneration” (The Salk Institute for Biological Study, priority 2001, dated 2010)

How the values were obtained:
Format in all cases: cell-based, mouse
4RE-luc and MCK-luc = test: Chromatin-integrated muscle-specific reporters in stable C2C12 clones; conditions: TSA in GM (presence of serum), 48 hours
Description: (§1) FIGS. 2A-D are graphs showing DI activation muscle-specific transcription in skeletal muscle cells. […] Luciferase activity was measured in non-treated cells cultured in either GM (GM) or DM (DM). Alternatively, C2C12 were exposed to sodium butyrate for 24 hours in GM and then switched to DM without sodium butyrate (Butyr/GM>DM) or treated with sodium butyrate when cultured in DM (Butyr/DM) before being analyzed for luciferase activity. […] Luciferase assays were performed after culturing the cells for 48 hours in DM without sodium butyrate. […] The reporter activity was also analyzed in cells differentiated in the absence of TSA (DM)
(§2) Mouse muscle myoblast C2C12 cells (obtained from the American Type Culture Collection, ATCC CRL-1772) and CC42 cells (from Dr. Kenneth Walsh, Tufts University School of Medicine) were cultured in DMEM supplemented with 20% fetal bovine serum, 2 mM glutamine and 1× kanamycin (growth medium, GM). Cellular differentiation was induced with DMEM supplemented with 2% horse serum and 1× insulin, transferring, selenium (Life Technologies). Human skeletal myocytes (CC-2561) were purchased from Clonetics. […] Following transfections, luciferase activity was determined using the Dual-Luciferase reporter assay system (Promega) on a microtiter luminescence detection system (MLX, Dynex). […]

[1] = system: histones of the MCK enhancer; test: Chromatin immunoprecipitation with anti-acetyl-histone H4; conditions: myoblasts exposed to TSA in GM 16 hours, then DM 24 hours
Description: In FIG. 3A, MyoD acetylation in undifferentiated C2C12 myoblasts (GM) untreated (−) or treated with either sodium butyrate (Butyr.) or TSA and in differentiated myotubes (abbrev. DM in FIG. 3A, but not to be confused with the abbreviation for “differentiation medium” as used elsewhere herein) was measured by ^3H incorporation of exogenously transfected Flag-tagged MyoD following metabolic labeling with ^3H sodium acetate as described in Sartorelli, V., et al., Molecular Cell 4:725-34 (1999). […] Chromatin was immunoprecipitated with antibodies against acetyl-histone 4 (AcH4) or IgG (as a control). Purified DNA from anti-AcH4 immunoprecipitated chromatin was analyzed by PCR using primers recognizing GAPDH promoter and MCK enhancer as described in Example 1. Unbound DNA (lanes 2 and 3, top panel) is an aliquot of chromatin not immunoprecipitated by anti-AcH4 antibody and amplified with GAPDH primers. Input (lanes 2 and 3, bottom panel) is an aliquot (1%) of the chromatin analyzed before the immunoprecipitation to quantify the amount of DNA present in different samples. […] Myoblasts were then formaldehyde cross-linked and processed. […]
The MCK primers amplify nucleotides −1229 to −1007 of the MCK enhancer, while the GAPDH primers amplify nucleotides −1030 to −721. The PCR products were analyzed on 6% non-denaturing polyacrylamide gels. […]

cyclinA-luc = test: Integrated cyclinA-luc reporter in stable C2C12 clone; conditions: TSA treatment in GM
Description: as §1, §2

E2F-responsive construct = test: Luciferase assay of E2F-responsive construct; conditions: cells exposed to DI in DM
Description: FIGS. 2A-D are graphs showing DI activation muscle-specific transcription in skeletal muscle cells. […] Luciferase activity was measured in non-treated cells cultured in either GM (GM) or DM (DM). […] The reporter activity was also analyzed in cells differentiated in the absence of TSA (DM) Mouse muscle myoblast C2C12 cells (obtained from the American Type Culture Collection, ATCC CRL-1772) and CC42 cells (from Dr. Kenneth Walsh, Tufts University School of Medicine) were cultured in DMEM supplemented with 20% fetal bovine serum, 2 mM glutamine and 1× kanamycin (growth medium, GM). Cellular differentiation was induced with DMEM supplemented with 2% horse serum and 1× insulin, transferring, selenium (Life Technologies). Human skeletal myocytes (CC-2561) were purchased from Clonetics. Stable C2C12 cell lines with integrated reporters are described in Wu, Z., et al., Mol Cell Biol 20:3951-64 (2000). The MCK-luc, 4RE-luc, MEF2 reporter constructs have been described in Puri, P. L., et al., EMBO Journal 16:369-83 (1997a) and Sartorelli, V., et al., Molecular & Cellular Biology 17:1010-26 (1997). The E2F-luc plasmid is described in […]., et al., Genes Dev 7:1850-61 (1993). […] Following transfections, luciferase activity was determined using the Dual-Luciferase reporter assay system (Promega) on a microtiter luminescence detection system (MLX, Dynex).

## CC(/C=C/C(=O)NO)=C\[C@@H](C)C(=O)c1ccc(N(C)C)cc1 [TSA, trichostatin A]
4RE-luc and MCK-luc
  activation of integrated 4RE-luc and MCK-luc templates: two-to-three
[1]
  histone H4 acetylation of the MCK enhancer (ChIP): histone hyperacetylation of the MCK enhancer
cyclinA-luc
  serum-dependent transcription of integrated cyclinA-luc: not stimulated
E2F-responsive construct
  transcription driven from an E2F-responsive construct: stimulated
